Assay results reported in ChEMBL document CHEMBL6182916, “Unexpected Discovery of a Novel Triphenylphosphonium Alkylalcohol That Triggers Cancer Cell Death via Mitophagy and Ferroptosis” (J Med Chem, 2025).
Activity calls are given as the source filed them. The calls are words filed in the database; no cut-off is given here.

Columns and labels:
[1] = Toxicity in female BALB/c mouse assessed as effect on body weight at 30 mg/kg, ip measured for 7 days; assay type: organism-based; details: in vivo, 168 h, time 7 day
HCC827 [2] = assay: Downregulation of HK-2 expression level in human HCC827 cells incubated for 24 hrs by Western blot analysis; assay type: functional, cell-based; details: dose 0.25-0.5 µM
HeLa = assay: Induction of mitophagy in human HeLa cells assessed as colocalization of mitochondria and lysosomes at 0.5 uM by mitoGFP staining based confocal microscopy analysis; assay type: functional, cell-based
SK-LU-1 = assay: Antiproliferative activity against human SK-LU-1 cells assessed as inhibition of cell growth measured after 72 hrs by MTT assay; assay type: functional, cell-based; details: SK-LU-1, 72 h
HCC827 [3] = assay: Antitumor activity against human HCC827 cells xenografted in female nude mouse model assessed as suppression of tumor growth at 5 to 10 mg/kg, ip measured every two days for 14 days; assay type: functional, organism-based; details: dose 5-10 mg/kg, time 14.0 day
HCC827 [4] = assay: Induction of apoptosis in human HCC827 cells assessed as late apoptotic cells at 0.25 uM measured after 48 hrs by annexin V and PI staining based flow cytometry analysis (reference value: 1.29%); assay type: functional
HCC827 [5] = assay: Induction of mitochondrial dysfunction in human HCC827 cells assessed as suppression of basal respiration incubated for 4 hrs by Seahorse XF96 extracellular flux analyzer; assay type: functional, cell-based; details: dose 0.125-5 µM
HCC827 [6] = assay: Downregulation of HK-2 expression level in human HCC827 cells 0.5 uM by Western blot analysis; assay type: functional, cell-based; details: time 3-24 hrs
HCC827 [7] = assay: Induction of ROS generation in human HCC827 cells at 1 uM incubated for 4 hrs in presence of VC by DCFH-DA staining based by absorbance based laser confocal microscopic analysis; assay type: functional, cell-based
HCC827 [8] = assay: Effect on NDUFB8 expression in human HCC827 cells at 0.25 to 0.5 uM; assay type: functional, cell-based; details: dose 0.25-0.5 µM
Mitochondrial membrane = assay: Induction of mitochondrial membrane depolarization in human HCC827 cells assessed as increase green fluorescence incubated for 4 hrs by JC-1 staining based confocal microscopy analysis; assay type: cell membranes; details: dose 0.125-0.5 µM
HCC827 [9] = assay: Induction of cell cycle arrest in human HCC827 assessed as increase in p21 expression level at 0.25 to 5 uM measured after 24 hrs by Western blot analysis; assay type: functional, cell-based; details: dose 0.25-5 µM
HCC827 [10] = assay: Induction of apoptosis in human HCC827 cells assessed as early apoptotic cells at 1 uM measured after 48 hrs by annexin V and PI staining based flow cytometry analysis (reference value: 0.70%); assay type: functional
HCC827 [11] = assay: Downregulation of SDHB expression in human HCC827 cells incubated for 24 hrs by Western blot analysis; assay type: functional, cell-based; details: dose 0.25-0.5 µM
[12] = Antiproliferative activity against human LO2 cells assessed as inhibition of cell growth measured after 72 hrs by MTT assay; assay type: toxicity, cell-based, L02
HCC827 [13] = assay: Induction of apoptosis in human HCC827 cells assessed as late apoptotic cells at 1 uM measured after 48 hrs by annexin V and PI staining based flow cytometry analysis (reference value: 2.18%); assay type: functional
BEAS-2B [14] = assay: Induction of mitochondrial dysfunction in human BEAS-2B cells assessed as reduction in glycolytic capacity at 0.125 to 5 uM incubated for 4 hrs by Seahorse XF96 extracellular flux analyzer; assay type: functional, cell-based; details: dose 0.125-5 µM
HEK-293T = assay: Inhibition of colony formation in HEK293T cells at 0.05 to 0.1 uM incubated for 72 hrs by crystal violet staining based analysis; assay type: functional, cell-based; details: Homo sapiens, dose 0.05-0.1 µM
[15] = Antiproliferative activity against human BEAS-2B cells assessed as inhibition of cell growth measured after 72 hrs by MTT assay; assay type: toxicity, cell-based
NCI-H460 = assay: Antiproliferative activity against human NCI-H460 cells assessed as inhibition of cell growth measured after 72 hrs by MTT assay; assay type: functional, cell-based; details: NCI-H460, 72 h
BEAS-2B [16] = assay: Induction of mitochondrial dysfunction in human BEAS-2B cells assessed as reduction in glycolytic reserve at 0.125 to 5 uM incubated for 4 hrs by Seahorse XF96 extracellular flux analyzer; assay type: functional, cell-based; details: dose 0.125-5 µM
HCC827 [17] = assay: Induction of ROS generation in human HCC827 cells assessed as green fluorescence intensity at 1 uM incubated for 24 hrs by DCFH-DA staining based by absorbance based laser confocal microscopic analysis; assay type: functional, cell-based
[18] = Antiproliferative activity against human Osimertinib-resistant HCC827 cell assessed as inhibition of cell growth measured after 72 hrs by MTT assay; assay type: functional, cell-based

For `Cc1ccc([P+](CCCCCCCCCCO)(c2ccc(C)cc2)c2ccc(C)cc2)cc1.[Br-]`, the Activity [1] was “Non-toxic”, the Activity (HCC827 [2]) was “Dose-dependent-effect” and the Activity (HeLa) was “Active”. For the same compound, the IC50 (SK-LU-1) was 230 nM, the Activity (HCC827 [3]) was “Active” and the Activity (HCC827 [4]) was 3.3%. For the same compound, the Activity (HCC827 [5]) was “Dose-dependent-effect”, the Activity (HCC827 [6]) was “Time-dependent-effect” and the Activity (HCC827 [7]) was “inactive”. The Activity (HCC827 [8]) was “Active”, the Activity (Mitochondrial membrane) was “Dose-dependent-effect” and the Activity (HCC827 [9]) was “Active”. For the same compound, the Activity (HCC827 [10]) was 5.85%, the Activity (HCC827 [11]) was “Active” and the IC50 at 72 h [12] was 1310 nM. For the same compound, the Activity (HCC827 [13]) was 0.75%, the Activity (BEAS-2B [14]) was “Minimal_effect” and the inhibition (HEK-293T) was “Minimal_effect”. The IC50 at 72 h [15] was 1420 nM, the IC50 (NCI-H460) was 110 nM and the Activity (BEAS-2B [16]) was “Minimal_effect”. For the same compound, the Activity (HCC827 [17]) was “Active” and the IC50 [18] was 230 nM.
